Experimental data as given in the supplement of paper PMC10307832.

Experiments:
Experiment in all cases: relative viability (nuclei count vs DMSO), 5 days (fraction); higher = more cells survive
[1] = compound: CC1CC(=O)N(C2=CN=C(N=C2N1C3CCCC3)NC4=C(C=C(C=C4)C(=O)NC5CCN(CC5)C)OC)C [NPK76-II-72-1] + CC(=O)c1c(C)c2cnc(Nc3ccc(N4CCNCC4)cn3)nc2n(C2CCCC2)c1=O [Palbociclib] (partner 0.5 µM)
Summary of the method: (§1)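 Lung cancer cell lines were seeded in 1536-well plates and dosed by pin tool the next day, with either a single drug or a fixed anchor-drug dose combined with five library-drug doses (not always all listed) spaced in √10 steps. Five days later, one step fixed the cells and stained their nuclei (final 0.05% Triton X-100, 1% formaldehyde, 1 ug/ml Hoechst), and nuclei were counted on 4× images. Relative viability is the nuclei count in treated wells divided by the count in vehicle wells, and each value is the median of duplicate plates.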

[2] = compound: CC[C@@H]1C(=O)N(C)c2cnc(Nc3ccc(C(=O)NC4CCN(C)CC4)cc3OC)nc2N1C1CCCC1 [BI-2536] + CC(=O)c1c(C)c2cnc(Nc3ccc(N4CCNCC4)cn3)nc2n(C2CCCC2)c1=O [Palbociclib] (partner 0.5 µM)
Summary of the method: as §1

[3] = compound: CC[C@@H]1C(=O)N(C)c2cnc(Nc3ccc(C(=O)NC4CCN(C)CC4)cc3OC)nc2N1C1CCCC1 [BI-2536] + CS(=O)(=O)N1CCN(Cc2cc3nc(-c4cccc5[nH]ncc45)nc(N4CCOCC4)c3s2)CC1 [Pictilisib] (partner 1 µM)
Summary of the method: as §1

[4] = compound: CC[C@@H]1C(=O)N(C)c2cnc(Nc3ccc(C(=O)NC4CCN(C)CC4)cc3OC)nc2N1C1CCCC1 [BI-2536] + O=C(c1cc(Cc2n[nH]c(=O)c3ccccc23)ccc1F)N1CCN(C(=O)C2CC2)CC1 [Olaparib] (partner 8 µM)
Summary of the method: as §1

Cell Line | relative viability ([1]; first compound 0.01 µM) | relative viability ([1]; first compound 0.03162 µM) | relative viability ([1]; first compound 0.1 µM) | relative viability ([1]; first compound 0.3162 µM) | relative viability ([1]; first compound 1 µM) | relative viability ([2]; first compound 0.01 µM) | relative viability ([2]; first compound 0.03162 µM) | relative viability ([2]; first compound 0.1 µM) | relative viability ([2]; first compound 0.3162 µM) | relative viability ([2]; first compound 1 µM) | relative viability ([3]; first compound 0.01 µM) | relative viability ([3]; first compound 0.03162 µM) | relative viability ([3]; first compound 0.1 µM) | relative viability ([3]; first compound 0.3162 µM) | relative viability ([3]; first compound 1 µM) | relative viability ([4]; first compound 0.01 µM) | relative viability ([4]; first compound 0.03162 µM) | relative viability ([4]; first compound 0.1 µM) | relative viability ([4]; first compound 0.3162 µM) | relative viability ([4]; first compound 1 µM)
LXF-289 | 0.594 | 0.58 | 0.562 | 0.577 | 0.633 | 0.612 | 0.583 | 0.587 | 0.116 | 0.116 | 0.839 | 0.759 | 0.126 | 0.0466 | 0.0562 | 1 | 0.719 | 0.343 | 0.0702 | 0.0622
NCI-H23 | 0.537 | 0.504 | 0.412 | 0.501 | 0.6 | 0.465 | 0.528 | 0.304 | 0.146 | 0.111 | 0.424 | 0.272 | 0.169 | 0.139 | 0.14 | 0.307 | 0.318 | 0.212 | 0.117 | 0.104
NCI-H322M | 0.485 | 0.492 | 0.48 | 0.482 | 0.47 | 0.503 | 0.436 | 0.462 | 0.447 | 0.395 | 0.303 | 0.478 | 0.559 | 0.519 | 0.271 | 0.74 | 0.692 | 0.637 | 0.442 | 0.393
NCI-H358 | 0.131 | 0.186 | 0.165 |  | 0.126 | 0.132 | 0.133 | 0.104 | 0.0605 | 0.0928 | 0.338 | 0.235 | 0.18 | 0.14 | 0.15 | 0.559 | 0.247 | 0.0974 | 0.0882 | 0.0802
NCI-H441 | 0.232 | 0.26 | 0.251 | 0.205 | 0.254 | 0.201 | 0.203 | 0.183 | 0.132 | 0.122 | 0.464 | 0.211 | 0.138 | 0.17 | 0.117 | 0.522 | 0.354 | 0.171 | 0.148 | 0.148
NCI-H460 | 0.157 | 0.105 | 0.225 | 0.121 | 0.219 | 0.264 | 0.15 | 0.14 | 0.0134 | 0.0152 | 0.276 | 0.375 | 0.33 | 0.0337 | 0.0494 | 0.488 | 0.421 | 0.268 | 0.0394 | 0.0262
NCI-H520 | 0.235 | 0.24 | 0.267 | 0.26 | 0.247 | 0.225 | 0.216 | 0.182 | 0.178 | 0.178 | 0.287 | 0.232 | 0.268 | 0.172 | 0.162 | 0.284 | 0.217 | 0.228 | 0.162 | 0.168
NCI-H647 | 0.31 | 0.351 | 0.424 | 0.362 | 0.506 | 0.265 | 0.473 | 0.266 | 0.0799 | 0.06 | 0.396 | 0.376 | 0.129 | 0.0762 | 0.0954 | 0.481 | 0.281 | 0.107 | 0.0584 | 0.0662
NCI-H650 | 0.332 | 0.366 | 0.3 | 0.303 | 0.356 | 0.315 | 0.274 | 0.294 | 0.187 | 0.138 | 0.849 | 0.584 | 0.245 | 0.206 | 0.15 | 0.407 | 0.28 | 0.237 | 0.146 | 0.105
NCI-H661 | 0.424 | 0.37 | 0.418 | 0.346 | 0.435 | 0.403 | 0.372 | 0.331 | 0.209 | 0.225 | 0.411 | 0.37 | 0.255 | 0.247 | 0.217 | 0.763 | 0.468 | 0.354 | 0.335 | 0.34
NCI-H727 | 0.705 | 0.671 | 0.594 | 0.621 | 0.712 | 0.708 | 0.613 | 0.701 | 0.615 | 0.437 | 0.391 | 0.338 | 0.433 | 0.265 | 0.19 | 0.589 | 0.765 | 0.643 | 0.461 | 0.576
NCI-H838 | 0.209 | 0.2 | 0.217 | 0.228 | 0.228 | 0.214 | 0.202 | 0.199 | 0.0979 | 0.0994 | 0.44 | 0.393 | 0.203 | 0.118 | 0.122 | 0.731 | 0.638 | 0.368 | 0.0986 | 0.0726
NCI-H1355 | 0.377 | 0.427 | 0.397 | 0.383 | 0.439 | 0.415 | 0.405 | 0.385 | 0.171 | 0.158 | 0.477 | 0.43 | 0.227 | 0.161 | 0.184 | 0.728 | 0.598 | 0.536 | 0.169 | 0.17
NCI-H1395 | 0.627 | 0.621 | 0.621 | 0.661 | 0.616 | 0.574 | 0.516 | 0.339 | 0.347 | 0.375 | 0.622 | 0.524 | 0.747 | 0.339 | 0.357 | 0.4 | 0.396 | 0.329 | 0.364 | 0.355
NCI-H1437 | 0.31 | 0.311 | 0.292 | 0.272 | 0.3 | 0.332 | 0.281 | 0.273 | 0.159 | 0.197 | 0.428 | 0.427 | 0.397 | 0.098 | 0.099 | 0.6 | 0.494 | 0.339 | 0.23 | 0.247
NCI-H1650 | 0.314 | 0.428 | 0.458 | 0.31 | 0.407 | 0.382 | 0.282 | 0.188 | 0.129 | 0.145 | 0.567 | 0.366 | 0.146 | 0.162 | 0.0901 | 0.866 | 0.689 | 0.609 | 0.166 | 0.143
